Tests used:
Human orthopneumovirus = assay: Antiviral activity against Human respiratory syncytial virus; type: functional, organism-based
[1] = Cytotoxicity against human Hep2 cells; type: cell-based, HEp-2
[2] = Cytotoxicity against human MT4 cells; type: cell-based
[3] = Inhibition of Human respiratory syncytial virus RNP

Structure (SMILES)	EC50 (Human orthopneumovirus) [µM]	CC50 [1] [µM]	CC50 [2] [µM]	IC50 [3] [µM]
N#C[C@]1(CO)O[C@@H](c2ccc3c(N)ncnn23)[C@H](O)[C@@H]1O	7.3	> 50	> 53	
C#C[C@]1(CO)O[C@@H](c2ccc3c(N)ncnn23)[C@H](F)[C@@H]1O	9.6	> 100	> 106	
C#C[C@]1(COP(=O)(O)OP(=O)(O)OP(=O)(O)O)O[C@@H](c2ccc3c(N)ncnn23)[C@H](F)[C@@H]1O				1
CC(C)(C)C(=O)SCCOP(=O)(OCCSC(=O)C(C)(C)C)OC[C@@]1(C#N)O[C@@H](c2ccc3c(N)ncnn23)[C@H](O)[C@@H]1O	1	39	7.3	
[N-]=[N+]=N[C@]1(CO)O[C@@H](c2ccc3c(N)nc(F)nn23)[C@H](F)[C@@H]1O	0.57	> 100	32	
N#C[C@]1(CO)O[C@@H](c2cc(F)c3c(N)ncnn23)[C@H](O)[C@@H]1O	9.2	> 100	> 93	

From ChEMBL document CHEMBL3608287, “Potential Treatment for the Respiratory Syncytial Virus Infections (HRSV)” (ACS Med Chem Lett, 2015)
